Measured values published in paper PMC8058764 (Chemical Research in Toxicology, 2021).

Experiments:
[1] = test system: CYP17A1; conditions: NCI-H295R cells; cited from earlier work
[2] = Lopinavir intrinsic clearance by adult human liver microsomes; type: in vitro ADME
[3] = Lopinavir intrinsic clearance by neonatal human liver microsomes; type: in vitro ADME; conditions: for mean lopinavir percent loss: lopinavir 1 μM, 30 min
[4] = test system: neonatal pooled HLMs; assay: Inhibition of DHEA-S metabolism; type: biochemical, human; conditions: DHEA-S 50 μM, HLMs 0.05 mg/mL, lopinavir 8 μM without or with ritonavir 0.5 μM, 30 min
[5] = test system: CYP21A2; conditions: NCI-H295R cells; cited from earlier work
[6] = both, human, pooled adult human liver microsomes, pH 7.4
[7] = human, pooled neonatal human liver microsomes, pH 7.4

mean lopinavir percent loss ([2]; adult HLMs 0.02 mg/mL, lopinavir 1 μM, 30 min): about 94%
lopinavir loss in presence of ritonavir ([2]; adult HLMs 0.02 mg/mL, lopinavir 1 μM, ritonavir 62.5 nM): less than 20%
half-life at 1 μM [2, 6]: 7.18 min
microsomal CLint at 1 μM [2, 6]: 4830 µL/min/mg
half-life at 1 μM [3, 7]: 52.1 min
microsomal CLint at 1 μM [3, 7]: 133 µL/min/mg
mean lopinavir percent loss ([3]; neonatal HLMs 0.02 mg/mL): 21%
mean lopinavir percent loss ([3]; neonatal HLMs 0.1 mg/mL): 32%
SMILES: Cc1cccc(C)c1OCC(=O)N[C@@H](Cc1ccccc1)[C@@H](O)C[C@H](Cc1ccccc1)NC(=O)[C@H](C(C)C)N1CCCNC1=O [lopinavir]
inhibition of CYP17A1 [1]: moderate inhibition
formation rate of 16α-hydroxy DHEA-S in neonatal HLMs [4]: 1.19 nmol/min/mg protein
inhibition of CYP21A2 [5]: moderate inhibition
